Laboratory results as given in US6031135A, “Trimethylsphingosine derivatives” (Oncomembrane, Inc., priority 1996, dated 2000).
Values belong to the compound of their own block, whether it stands above or below them.

How the values were obtained:
[1] = water solubility; assay type: physicochemical; settings: particularly at physiologic pH
[2] = tested on: HL60 cells; assay: HL60 adhesion on activated platelet-coated solid phase; assay type: cell-based, human; settings: thrombin-stimulated and PMA-stimulated platelets
Protocol: HL60 (a human promylelocytic cell line available from the ATCC under accession number CCL 240) adhesion on resting or activated platelet-coatedsolid phase was evaluated as follows. Each well of a 48-well plate (Costar Scientific, Cambridge, Mass.) was filled with a poly-L-lysine solution (100 μg/ml in PBS) and incubated for 1 hour. Each well then was washed with PBS and then 150 μl of PBS containing 6×10^7 resting or activated platelets were added to each well and the plate was incubated for 1 hour. Plates were centrifuged (300×g for 7 minutes) and incubated a further 30 minutes at room temperature. Bound platelets were fixed by addition of 0.1% (w/v) glutaraldehyde in PBS for 2 minutes at 4° C. Each well was washed with 10 mM glycine in PBS and plates were incubated with 5% (w/v) BSA containing 0.1% (w/v) sodium azide, 10 mM glycine in PBS for 1 hour at room temperature.

[3] = tested on: 47 kDa and 65 kDa proteins; assay: PMA-stimulated protein phosphorylation in 32P-labeled neutrophils; assay type: cell-based, human; settings: neutrophils pre-incubated with 15-45 μM, then 1.5 μM PMA
Protocol: Excess unbound components were removed by centrifugation and the pellets were resuspended in the same buffer, repeating twice. The cells then were divided into 7 treatment groups, each containing ≈1×10^7 cells in a total volume of 0.4 ml. TMS, SPN or DMS was added to a suspension and incubated at 37° C. for 10 min, followed by addition of PMA to a final concentration of 1.5 μM. Two minutes later, the reaction was terminated by adding 0.1 ml of Laemmli sample buffer and 20 mM EDTA, followed by heating at 100° C. for 5 min. Aliquots were separated through 10% sodium dodecyl sulfate gels using known procedures. ^32 P incorporation was visualized by autoradiography.

[4] = tested on: PK-C; settings: literature (Hannun & Bell; Merrill & Stevens); cited from earlier work
[5] = tested on: B16BL6 melanoma cells; assay: metastasis of B16BL6 melanoma cells (lung metastatic deposits in mice); assay type: in vivo, mouse; parameters: key to Inhibition of metastasis: +: effective; -: not effective
Protocol: BL6 cells were injected into mice and metastatic deposits in the lung were assessed after various treatments including route and timing, of administration.

[6] = tested on: platelets; assay: platelet aggregation (aggregometer, thrombin or ADP); assay type: cell-based; parameters: key to Inhiition of PA: +: effective; -: not effective
Protocol: Platelets were isolated from platelet-rich plasma (purchased from the Oregon Red Cross, Portland, Oreg.). Contaminating erythrocytes were removed by centrifugation (80×g for 10 minutes). Platelets were obtained by centrifugation (300×g for 10 minutes), washed once in Tyrode buffer (pH 6.5) containing 22 mM trisodium citrate and 0.35% (w/v) BSA and resuspended in the same buffer to obtain a concentration of 1-2×10^9 platelets/ml. All procedures were performed at room temperature.
A suspension of platelets (about 3.5×10^8 /ml) in Tyrode buffer was preincubated with inhibitor compounds (H-7 [1-(5-isoquinolinylsulfonyl)-2-methylpiperazine, a synthetic protein kinase-C inhibitor purchased from Seikagaku America Inc., St. Petersburg, Fla.], Calphostin-C [a synthetic protein kinase-C inhibitor obtained from Dr. Saitoh, Kyowa Hakko Co., Ltd., Machida, Tokyo, Japan], sphingosine [purchased from Sigma, St. Louis, Mo.] and dimethylsphingosine and trimethylsphingosine [synthesized according to Igarashi et al., Biochem., 28, 6796, 1989]) followed by addition of thrombin or ADP (both purchased from Sigma). Platelet aggregation was evaluated by transmittance change using an aggregometer (Chrono-log Corp., Havertown, Pa.) equipped with a computer analyzer.

[7] = tested on: PK-C; assay: PK-C activity bioassay (histone III-S or myelin basic protein substrate); assay type: biochemical, human (A431 cells) or mouse brain; parameters: key: +: effective; -: not effective
Protocol: In another in vitro assay, the influence of various compounds on PK-C activity was monitored. Certain tumor cells present high levels of PK-C activity. The human epidermoid carcinoma cell line A-431 (ATCC No. CRL 1555) was used in a bioassay for PK-C activity as described in Igarashi et al. (supra). Briefly, phosphatidylserine (5 μg/tube) and 1,2-diolein (0.05 μg/tube), with or without an appropriate quantity of a sphingosine derivative sample, were added in an organic solvent, ethanol or ethanol/chloroform, to a 1.5 ml tube (Sarstedt) and the mixture was evaporated under a N2 stream. The lipid mixture was sonicated in about 30 μl of 20 mM Tris-HCl (pH 7.5) for 30 minutes.
The resulting liposomes were supplemented with a buffer mixture comprising 25 mM Tris-HCl (pH 7.5), 10 mM MgCl2, […], 50 μM EGTA, 500 μM CaCl2, […] histone III-S or myelin basic protein and 20 μM γ[^32 P]-ATP (2×10^6 cpm) to a final volume of about 90 μl. […]
The precipitate was collected by centrifugation, washed twice with 1 ml of 25% TCA, then dissolved in 1 ml of 1 M NaOH containing 0.1% deoxycholate with slight heating (80° C. for ten minutes) and counted in a scintillation counter. […]

[8] = Preincubation with free derivative

SMILES: CCCCCCCCCCCCC/C=C/[C@@H](O)[C@@H](N)CO [sphingosine, Sphingosine]
- water solubility [1]: less water soluble
- HL60 cell binding [2]: minimally inhibited
- phosphorylation of 47 kDa and 65 kDa proteins [3]: diminished significantly
- PK-C activity [4]: inhibited

- water solubility [1]: less water soluble
SMILES: CCCCCCCCCCCCC/C=C/C(O)C(CO)N(C)C (stereo not shown) [DMS, N,N-dimethylsphingosine]
- HL60 cell binding [2]: inhibited strongly
- phosphorylation of 47 kDa and 65 kDa proteins [3]: diminished significantly

- water solubility [1]: less water soluble
SMILES: CCCCCCCCCCCCC/C=C/C(O)C(CO)NC (stereo not shown) [MMS, N-monomethylsphingosine]

SMILES: C[N+](C)(C)[C@@H](CO)[C@H](O)/C=C/CCCCCCCCCCCCC(=O)O [Carboxy TMS]
- Inhibition of metastasis [5, 8]: -
- Inhiition of PA [6]: -
- PKC inhibition [7]: -

SMILES: CCCCCCCCCCCCCCCC(O)C(CO)[N+](C)(C)C (stereo not shown) [DHTMS]
- Inhibition of metastasis ([5]; Experimental and spontaneous metastasis with liposomal formulation): +

SMILES: COC(=O)CCCCCCCCCCCC/C=C/[C@@H](O)[C@H](CO)[N+](C)(C)C [Methylcarboxy TMS]
- Inhibition of metastasis [5, 8]: -
- Inhiition of PA [6]: -
- PKC inhibition [7]: -

SMILES: CCCCCCCCCCCCCC#CC(O)C(CO)[N+](C)(C)C (stereo not shown) [4-alkyn-TMS]
- Inhibition of metastasis ([5]; B16BL6 melanoma cells, no readable footnote on the cell): +
